Experimental data taken from patent US11591336B2 (Relay Therapeutics, Inc., priority 2017, dated 2023).
Counter-ions that a name gives are not always drawn.

target: SHP2 (Homo sapiens (Human), UniProt Q06124); experiment: SHP2 Allosteric Inhibition Assay (DiFMUP prompt fluorescence); format: biochemical; conditions: 0.25 nM SHP2 activated with 0.5 μM peptide IRS1_pY1172(dPEG8)pY1222; substrate DiFMUP 100 μM; 25° C.

IC50	SMILES
< 1000 nM	C[C@@H]1OCC2(CCN(c3cnc4c(N5CCCc6c(CN7CCOC7=O)cccc65)n[nH]c4n3)CC2)[C@@H]1N [Compound 459]
< 1000 nM	COCCS(=O)(=O)c1cccc2c1CCCN2c1n[nH]c2nc(N3CCC4(CC3)CO[C@@H](C)[C@H]4N)cnc12 [Compound 460]
< 1000 nM	COC(=O)Cc1cccc2c1CCCN2c1n[nH]c2nc(N3CCC4(CC3)CO[C@@H](C)[C@H]4N)cnc12 [Compound 461]
< 1000 nM	C=C(C)c1cccc2c1CCCN2c1n[nH]c2nc(N3CCC4(CC3)CO[C@@H](C)[C@H]4N)cnc12 [Compound 462]
< 1000 nM	C[C@@H]1OCC2(CCN(c3cnc4c(N5CCCc6c5cccc6S(=O)(=O)C5COC5)n[nH]c4n3)CC2)[C@@H]1N [Compound 464]
< 1000 nM	C[C@@H]1OCC2(CCN(c3cnc4c(N5CCCc6c5cccc6S(=O)(=O)c5cnn(C)c5)n[nH]c4n3)CC2)[C@@H]1N [Compound 465]
< 1000 nM	CC(=O)N(C)Cc1cccc2c1CCCN2c1n[nH]c2nc(N3CCC4(CC3)CO[C@@H](C)[C@H]4N)cnc12 [Compound 466]
< 1000 nM	N[C@@H]1C[C@H](O)CC12CCN(c1cnc3c(N4CCCc5ncccc54)n[nH]c3n1)CC2 [Compound 467, (2R,4R)-4-amino-8-[3-(1,2,3,4-tetrahydro-1,5-naphthyridin-1-yl)-1H-pyrazolo[3,4-b]pyrazin-6-yl]-8-azaspiro[4.5]decan-2-ol]
< 1000 nM	CO[C@H]1C[C@@H](N2CCN(c3n[nH]c4nc(N5CCC6(CC5)CO[C@@H](C)[C@H]6N)cnc34)c3ccc(C#N)cc32)C1 [Compound 469]
< 1000 nM	CO[C@H]1C[C@H](N2CCN(c3n[nH]c4nc(N5CCC6(CC5)CO[C@@H](C)[C@H]6N)cnc34)c3ccc(C#N)cc32)C1 [Compound 470]
< 1000 nM	CC(=O)N1CC(N2CCN(c3n[nH]c4nc(N5CCC6(CC5)CO[C@@H](C)[C@H]6N)cnc34)c3ccc(C#N)cc32)C1 [Compound 471]
1000 to 10000 nM	CC1(N)CCN(c2cnc3c(NCc4ccccc4)n[nH]c3n2)CC1 [Compound 473, 6-(4-amino-4-methyl-1-piperidyl)-N-benzyl-1H-pyrazolo[3,4-b]pyrazin-3-amine]
≥ 10000 nM	CNCCN(C)c1n[nH]c2nc(N3CCC(C)(CN)CC3)cnc12 [Compound 474]
1000 to 10000 nM	CC1(N)CCN(c2cnc3c(Sc4ccc[nH]c4=O)n[nH]c3n2)CC1 [Compound 475, 3-((6-(4-amino-4-methylpiperidin-1-yl)-1H-pyrazolo[3,4-b]pyrazin-3-yl)thio)pyridin-2(1H)-one]
< 1000 nM	CC1(N)CCN(c2cnc3c(Sc4cc[nH]c(=O)c4Cl)n[nH]c3n2)CC1 [Compound 477, 4-((6-(4-amino-4-methylpiperidin-1-yl)-1H-pyrazolo[3,4-b]pyrazin-3-yl)thio)-3-chloropyridin-2(1H)-one]
< 1000 nM	COc1nccc(Sc2n[nH]c3nc(N4CCC(C)(N)CC4)cnc23)c1Cl [Compound 479, 1-(3-((3-chloro-2-methoxypyridin-4-yl)thio)-1H-pyrazolo[3,4-b]pyrazin-6-yl)-4-methylpiperidin-4-amine]
< 1000 nM	CC1(N)CCN(c2cnc3c(Sc4cccnc4C(=O)O)n[nH]c3n2)CC1 [Compound 482]
< 1000 nM	N[C@@H]1COCC12CCN(c1cnc3c(Sc4cccnc4C(F)(F)F)n[nH]c3n1)CC2 [Compound 483, (S)-8-(3-((2-(trifluoromethyl)pyridin-3-yl)thio)-1H-pyrazolo[3,4-b]pyrazin-6-yl)-2-oxa-8-azaspiro[4.5]decan-4-amine]
< 1000 nM	Cn1ccc(Sc2n[nH]c3nc(N4CCC(C)(N)CC4)cnc23)c(Cl)c1=O [Compound 484, 4-((6-(4-amino-4-methylpiperidin-1-yl)-1H-pyrazolo[3,4-b]pyrazin-3-yl)thio)-3-chloro-1-methylpyridin-2(1H)-one]
< 1000 nM	NCC1(F)CCN(c2cnc3c(Sc4ccccc4Cl)n[nH]c3n2)CC1 [Compound 485, (1-(3-((2-chlorophenyl)thio)-1H-pyrazolo[3,4-b]pyrazin-6-yl)-4-fluoropiperidin-4-yl)methanamine]
< 1000 nM	CC1(N)CCN(c2cnc3c(Sc4ccncc4)n[nH]c3n2)CC1 [Compound 486, 4-methyl-1-(3-(pyridin-4-ylthio)-1H-pyrazolo[3,4-b]pyrazin-6-yl)piperidin-4-amine]

IC50	SMILES
≥ 10000 nM	CC(=O)N1CCCC(Sc2n[nH]c3nc(N4CCC(C)(N)CC4)cnc23)C1 (stereo not drawn) [Compound 488, 1-(3-((6-(4-amino-4-methylpiperidin-1-yl)-1H-pyrazolo[3,4-b]pyrazin-3-yl)thio)piperidin-1-yl)ethan-1-one]
< 1000 nM	CC1(N)CCN(c2cnc3c(Sc4ccnc(N)c4F)n[nH]c3n2)CC1 [Compound 489, 4-((6-(4-amino-4-methylpiperidin-1-yl)-1H-pyrazolo[3,4-b]pyrazin-3-yl)thio)-3-fluoropyridin-2-amine]
1000 to 10000 nM	CN(c1ccnc(N)c1)c1n[nH]c2nc(N3CCC(C)(N)CC3)cnc12 [Compound 491, N4-[6-(4-amino-4-methyl-1-piperidyl)-1H-pyrazolo[3,4-b]pyrazin-3-yl]-N4-methyl-pyridine-2,4-diamine]
≥ 10000 nM	CC1(N)CCN(c2cnc3c(SC4CCCNC4)n[nH]c3n2)CC1 (stereo not drawn) [Compound 492, 4-methyl-1-(3-(piperidin-3-ylthio)-1H-pyrazolo[3,4-b]pyrazin-6-yl)piperidin-4-amine]
< 1000 nM	CC1(N)CCN(c2cnc3c(Sc4ncnc5ccccc45)n[nH]c3n2)CC1 [Compound 493, 4-methyl-1-(3-(quinazolin-4-ylthio)-1H-pyrazolo[3,4-b]pyrazin-6-yl)piperidin-4-amine]
1000 to 10000 nM	COC(=O)CCc1ncccc1Nc1n[nH]c2nc(N3CCC(C)(N)CC3)cnc12 [Compound 495, methyl 3-[3-[[6-(4-amino-4-methyl-1-piperidyl)-1H-pyrazolo[3,4-b]pyrazin-3-yl]amino]-2-pyridyl]propanoate]
< 1000 nM	CC1(N)CCN(c2cnc3c(Sc4cccn5ccnc45)n[nH]c3n2)CC1 [Compound 496, 1-(3-(imidazo[1,2-a]pyridin-8-ylthio)-1H-pyrazolo[3,4-b]pyrazin-6-yl)-4-methylpiperidin-4-amine hydrochloride]
< 1000 nM	CNc1nccc(Sc2n[nH]c3nc(N4CCC(C)(N)CC4)cnc23)c1Cl [Compound 497, 4-((6-(4-amino-4-methylpiperidin-1-yl)-1H-pyrazolo[3,4-b]pyrazin-3-yl)thio)-3-chloro-N-methylpyridin-2-amine hydrochloride]
< 1000 nM	CC1(CN)CCN(c2cnc3c(Nc4ccnc(N)c4Cl)n[nH]c3n2)CC1 [Compound 498, N^4-(6-(4-(aminomethyl)-4-methylpiperidin-1-yl)-1H-pyrazolo[3,4-b]pyrazin-3-yl)-3-chloropyridine-2,4-diamine]
< 1000 nM	CC1(CN)CCN(c2cnc3c(Nc4ccnc(Cl)c4Cl)n[nH]c3n2)C1 (stereo not drawn) [Compound 499, 6-(3-(Aminomethyl)-3-methylpyrrolidin-1-yl)-N-(2,3-dichloropyridin-4-yl)-1H-pyrazolo[3,4-b]pyrazin-3-amine]
< 1000 nM	CC1(CN)CCN(c2cnc3c(Nc4ccnc(Cl)c4Cl)n[nH]c3n2)CC1 [Compound 500, 6-(4-(Aminomethyl)-4-methylpiperidin-1-yl)-N-(2,3-dichloropyridin-4-yl)-1H-pyrazolo[3,4-b]pyrazin-3-amine hydrochloride]
≥ 10000 nM	Cn1nc(Oc2ccnc(Cl)c2Cl)c2ncc(N3CCC(C)(CN)CC3)nc21 [Compound 501, (1-(3-((2,3-dichloropyridin-4-yl)oxy)-1-methyl-1H-pyrazolo[3,4-b]pyrazin-6-yl)-4-methylpiperidin-4-yl)methanamine]
< 1000 nM	CC1(N)CCN(c2cnc3c(Oc4ncccc4Cl)n[nH]c3n2)CC1 [Compound 502, 1-(3-((3-chloropyridin-2-yl)oxy)-1H-pyrazolo[3,4-b]pyrazin-6-yl)-4-methylpiperidin-4-amine dihydrochloride]
< 1000 nM	Cc1nccc(Oc2n[nH]c3nc(N4CCC(C)(CN)CC4)cnc23)c1Cl [Compound 504, (1-(3-((3-chloro-2-methylpyridin-4-yl)oxy)-1H-pyrazolo[3,4-b]pyrazin-6-yl)-4-methylpiperidin-4-yl)methanamine]
1000 to 10000 nM	CC1(CN)CCN(c2cnc3c(Oc4ccc5[nH]ccc5c4)n[nH]c3n2)CC1 [Compound 505, (1-(3-((1H-indol-5-yl)oxy)-1H-pyrazolo[3,4-b]pyrazin-6-yl)-4-methylpiperidin-4-yl)methanamine]
< 1000 nM	Cn1cc(-c2nccc(Oc3n[nH]c4nc(N5CCC(C)(CN)CC5)cnc34)c2Cl)cn1 [Compound 506, (1-(3-((3-chloro-2-(1-methyl-1H-pyrazol-4-yl)pyridin-4-yl)oxy)-1H-pyrazolo[3,4-b]pyrazin-6-yl)-4-methylpiperidin-4-yl)methanamine]
≥ 10000 nM	CC1(N)CCN(c2cnc3c(Oc4cnccc4N)n[nH]c3n2)CC1 [Compound 507, 3-((6-(4-Amino-4-methylpiperidin-1-yl)-1H-pyrazolo[3,4-b]pyrazin-3-yl)oxy)pyridin-4-amine hydrochloride]
1000 to 10000 nM	CC1(N)CCN(c2cnc3c(Oc4cccnc4N)n[nH]c3n2)CC1 [Compound 508, 3-((6-(4-Amino-4-methylpiperidin-1-yl)-1H-pyrazolo[3,4-b]pyrazin-3-yl)oxy)pyridin-2-amine hydrochloride]
1000 to 10000 nM	CC1(N)CCN(c2cnc3c(Oc4cnccc4Cl)n[nH]c3n2)CC1 [Compound 509, 1-(3-((4-Chloropyridin-3-yl)oxy)-1H-pyrazolo[3,4-b]pyrazin-6-yl)-4-methylpiperidin-4-amine hydrochloride]
< 1000 nM	CC1(N)CCN(c2cnc3c(Oc4cccnc4Cl)n[nH]c3n2)CC1 [Compound 510, 1-(3-((2-chloropyridin-3-yl)oxy)-1H-pyrazolo[3,4-b]pyrazin-6-yl)-4-methylpiperidin-4-amine]
< 1000 nM	Cn1ccc(Sc2n[nH]c3nc(N4CCC(C)(CN)CC4)cnc23)cc1=O [Compound 511, 4-((6-(4-(aminomethyl)-4-methylpiperidin-1-yl)-1H-pyrazolo[3,4-b]pyrazin-3-yl)thio)-1-methylpyridin-2(1H)-one]
